Experimental data reported in patent publication US9090621B2, “Tyrosine kinase inhibitors” (Principia Biopharma Inc., priority 2013, dated 2015).

The molecules below were run against T1, human recombinant Btk (Homo sapiens (Human), UniProt Q06187) (assay: biochemical). Settings: not given.
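For IC50 in this document: Read-out is the quantity of phosphorylated substrate product formed, and IC50 reflects inhibition of Btk kinase activity.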

T1 sequence (Q06187 whole entry): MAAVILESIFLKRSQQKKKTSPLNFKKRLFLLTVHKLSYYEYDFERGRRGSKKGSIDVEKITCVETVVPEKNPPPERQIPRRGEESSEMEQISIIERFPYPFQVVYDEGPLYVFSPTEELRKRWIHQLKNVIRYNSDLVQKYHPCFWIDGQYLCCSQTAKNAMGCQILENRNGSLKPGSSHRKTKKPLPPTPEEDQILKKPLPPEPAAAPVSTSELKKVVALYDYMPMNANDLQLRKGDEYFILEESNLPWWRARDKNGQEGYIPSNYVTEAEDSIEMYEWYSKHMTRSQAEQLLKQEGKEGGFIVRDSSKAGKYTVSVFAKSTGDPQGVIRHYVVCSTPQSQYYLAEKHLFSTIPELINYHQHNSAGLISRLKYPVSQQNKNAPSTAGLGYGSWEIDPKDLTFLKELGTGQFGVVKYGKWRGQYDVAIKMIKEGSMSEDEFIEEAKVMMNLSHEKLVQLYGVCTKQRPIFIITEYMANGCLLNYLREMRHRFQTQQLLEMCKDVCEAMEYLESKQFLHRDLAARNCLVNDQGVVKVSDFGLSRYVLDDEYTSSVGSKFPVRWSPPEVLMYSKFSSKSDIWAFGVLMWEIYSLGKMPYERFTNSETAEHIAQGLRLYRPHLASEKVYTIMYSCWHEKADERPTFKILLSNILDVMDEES

Row | SMILES | IC50 [nM]
1 | CC(C)(C)C=C(C#N)C(=O)N1CCC[C@@H](n2nc(-c3ccc(Oc4ccccc4)cc3)c3c(N)ncnc32)C1 [29 A, (R)-2-(3-(4-amino-3-(4-phenoxyphenyl)-1H-pyrazolo[3,4-d]pyrimidin-1-yl)piperidine-1-carbonyl)-4,4-dimethylpent-2-enenitrile] | 2.7
2 | N#CC(=CC1CC1)C(=O)N1CCC[C@@H]1Cn1nc(-c2ccc(Oc3cc(F)cc(F)c3)cc2)c2c(N)ncnc21 [Example 25A, (R)-2-(2-((4-amino-3-(4-(3,5-difluorophenoxy)phenyl)-1H-pyrazolo[3,4-d]pyrimidin-1-yl)methyl)pyrrolidine-1-carbonyl)-3-cyclopropylacrylonitrile] | 9.6
3 | N#CC(=CC1CC1)C(=O)N1CCC[C@H]1Cn1nc(-c2ccc(Oc3cc(F)cc(F)c3)cc2)c2c(N)ncnc21 [Example 25B, (S)-2-(2-((4-amino-3-(4-(3,5-difluorophenoxy)phenyl)-1H-pyrazolo[3,4-d]pyrimidin-1-yl)methyl)pyrrolidine-1-carbonyl)-3-cyclopropylacrylonitrile] | 140
4 | N#CC(=CC1CC1)C(=O)N1CCC[C@@H]1Cn1nc(-c2ccc(Oc3c(F)cccc3F)cc2)c2c(N)ncnc21 [Example 32A, (R)-2-(2-((4-amino-3-(4-(2,6-difluorophenoxy)phenyl)-1H-pyrazolo[3,4-d]pyrimidin-1-yl)methyl)pyrrolidine-1-carbonyl)-3-cyclopropylacrylonitrile] | 1.7
5 | N#CC(=CC1CC1)C(=O)N1CCC[C@@H]1Cn1nc(-c2ccc(Oc3cc(F)cc(F)c3)cc2F)c2c(N)ncnc21 [Example 41A, (R)-2-(2-((4-amino-3-(2-fluoro-4-(3,5-difluorophenoxy)phenyl)-1H-pyrazolo[3,4-d]pyrimidin-1-yl)methyl)pyrrolidine-1-carbonyl)-3-cyclopropylacrylonitrile] | 3.2
6 | Cc1cc(Oc2ccccc2)ccc1-c1nn(C[C@H]2CCCN2C(=O)C(C#N)=CC2CC2)c2ncnc(N)c12 [Example 69A, (R)-2-(2-((4-amino-3-(2-methyl-4-phenoxyphenyl)-1H-pyrazolo[3,4-d]pyrimidin-1-yl)methyl)pyrrolidine-1-carbonyl)-3-cyclopropylacrylonitrile] | 5
7 | CC(C)C=C(C#N)C(=O)N1CCC[C@H]1Cn1nc(-c2ccc(Oc3cccc(F)c3)cc2F)c2c(N)ncnc21 [Example 73B, (S)-2-(2-((4-amino-3-(2-fluoro-4-(3-fluorophenoxy)phenyl)-1H-pyrazolo[3,4-d]pyrimidin-1-yl)methyl)pyrrolidine-1-carbonyl)-4-methylpent-2-enenitrile] | 11
8 | CC(C)C=C(C#N)C(=O)N1CCC[C@H]1Cn1nc(-c2ccc(Oc3c(F)cccc3F)cc2)c2c(N)ncnc21 [Example 75B, (S)-2-(2-((4-amino-3-(4-(2,6-difluorophenoxy)phenyl)-1H-pyrazolo[3,4-d]pyrimidin-1-yl)methyl)pyrrolidine-1-carbonyl)-4-methylpent-2-enenitrile] | 100
9 | CC(C)C=C(C#N)C(=O)N1CCC[C@H]1Cn1nc(-c2ccc(Oc3cccc(F)c3F)cc2)c2c(N)ncnc21 [Example 76B, (S)-2-(2-((4-amino-3-(4-(2,3-difluorophenoxy)phenyl)-1H-pyrazolo[3,4-d]pyrimidin-1-yl)methyl)pyrrolidine-1-carbonyl)-4-methylpent-2-enenitrile] | 7
10 | C[C@@H](Cn1nc(-c2ccc(Oc3ccccc3)cc2F)c2c(N)ncnc21)NC(=O)C(C#N)=CC(C)(C)N(C)C [Example 185B, (S)-N-(1-(4-amino-3-(2-fluoro-4-phenoxyphenyl)-1H-pyrazolo[3,4-d]pyrimidin-1-yl)propan-2-yl)-2-cyano-4-(dimethylamino)-4-methylpent-2-enamide] | 11

What follows are molecules tested against T1, human recombinant Btk (assay: not given). Settings: Caliper-based kinase assay; human recombinant Btk 2 nM, ATP 40 μM, peptide substrate 1 μM, room temperature 3 h.

Row | SMILES | IC50 [nM]
11 | CCNC(C)(C)C=C(C#N)C(=O)N1CCCC1Cn1nc(-c2ccc(Oc3ccccc3)cc2F)c2c(N)ncnc21 (stereo in doubt) [Example 85A, (S)-2-(2-((4-amino-3-(2-fluoro-4-phenoxyphenyl)-1H-pyrazolo[3,4-d]pyrimidin-1-yl)methyl)pyrrolidine-1-carbonyl)-4-(ethylamino)-4-methylpent-2-enenitrile] | 0.4
12 | CCNC(C)(C)C=C(C#N)C(=O)N1CCCC1Cn1nc(-c2ccc(Oc3ccccc3)cc2F)c2c(N)ncnc21 (stereo in doubt) [Example 85B, (R)-2-(2-((4-amino-3-(2-fluoro-4-phenoxyphenyl)-1H-pyrazolo[3,4-d]pyrimidin-1-yl)methyl)pyrrolidine-1-carbonyl)-4-(ethylamino)-4-methylpent-2-enenitrile] | 17.2
13 | CC(C)(C)C=C(C#N)C(=O)NC1CCC(n2nc(-c3ccc(NC(=O)c4ccc(C(F)(F)F)cc4)cc3)c3c(N)ncnc32)CC1 (centres unmarked) [8 (Cpd Table 2), N-(4-(4-amino-1-((1r,4r)-4-(2-cyano-4,4-dimethylpent-2-enamido)cyclohexyl)-1H-pyrazolo[3,4-d]pyrimidin-3-yl)phenyl)-4-(trifluoromethyl)benzamide] | > 1000
14 | CC(C)(C)C=C(C#N)C(=O)NC1CCC(n2nc(-c3ccc(NC(=O)c4ccc(C(F)(F)F)cc4)cc3)c3c(N)ncnc32)CC1 (centres unmarked) [10 (Cpd Table 2), N-(4-(4-amino-1-((1s,4s)-4-(2-cyano-4,4-dimethylpent-2-enamido)cyclohexyl)-1H-pyrazolo[3,4-d]pyrimidin-3-yl)phenyl)-4-(trifluoromethyl)benzamide] | > 1000
15 | NC(=O)C(=CC1CC1)C(=O)N1CCC[C@@H](n2nc(-c3ccc(Oc4cccc(F)c4)cc3)c3c(N)ncnc32)C1 [Example 15A, (R)-2-(3-(4-amino-3-(4-(3-fluorophenoxy)phenyl)-1H-pyrazolo[3,4-d]pyrimidin-1-yl)piperidine-1-carbonyl)-3-cyclopropylacrylamide] | 1.7
16 | N#CC(=CC1CC1)C(=O)N1CCCC1Cn1nc(-c2ccc(Oc3ccccc3)cc2)c2c(N)ncnc21 (centres unmarked) [Example 22B] | 2.6
17 | N#CC(=CC1CC1)C(=O)N1CCC[C@@H]1Cn1nc(-c2ccc(Oc3cccc(F)c3)cc2)c2c(N)ncnc21 [Example 24A, (R)-2-(2-((4-amino-3-(4-(3-fluorophenoxy)phenyl)-1H-pyrazolo[3,4-d]pyrimidin-1-yl)methyl)pyrrolidine-1-carbonyl)-3-cyclopropylacrylonitrile] | 6.2
18 | NC(=O)C(=CC1CC1)C(=O)N1CCC[C@@H](n2nc(-c3ccc(Oc4c(F)cccc4F)cc3)c3c(N)ncnc32)C1 [Example 36A, (R)-2-(3-(4-amino-3-(4-(2,6-difluorophenoxy)phenyl)-1H-pyrazolo[3,4-d]pyrimidin-1-yl)piperidine-1-carbonyl)-3 cyclopropylacrylamide] | 4.3
19 | N#CC(=CC1CC1)C(=O)N1CCC[C@H]1Cn1cc(-c2ccc(Oc3ccccc3)cc2F)c2c(N)ncnc21 [Example 59B, (S)-2-(2-((4-amino-5-(2-fluoro-4-phenoxyphenyl)-7H-pyrrolo[2,3-d]pyrimidin-7-yl)methyl)pyrrolidine-1-carbonyl)-3-cyclopropylacrylonitrile] | 26
20 | CC(C)(CNC(=O)C(C#N)=CC1CC1)Cn1nc(-c2ccc(Oc3ccccc3)cc2)c2c(N)ncnc21 [Example 67, N-(3-(4-amino-3-(4-phenoxyphenyl)-1H-pyrazolo[3,4-d]pyrimidin-1-yl)-2,2-dimethylpropyl)-2-cyano-3-cyclopropylacrylamide] | 27
21 | CC(C)(N)C=C(C#N)C(=O)N1CCC[C@H]1Cn1nc(-c2ccc(Oc3cccc(F)c3)cc2F)c2c(N)ncnc21 [Example 72B, (S)-4-amino-2-(2-((4-amino-3-(2-fluoro-4-(3-fluorophenoxy)phenyl)-1H-pyrazolo[3,4-d]pyrimidin-1-yl)methyl)pyrrolidine-1-carbonyl)-4-methylpent-2-enenitrile] | 28
22 | CCOC(C)(C)C=C(C#N)C(=O)N1CCC[C@@H](n2nc(-c3ccc(Oc4cccc(F)c4F)cc3F)c3c(N)ncnc32)C1 [Example 156A, (R)-2-(3-(4-amino-3-(4-(2,3-difluorophenoxy)-2-fluorophenyl)-1H-pyrazolo[3,4-d]pyrimidin-1-yl)piperidine-1-carbonyl)-4-ethoxy-4-methylpent-2-enenitrile] | 7.3
23 | CC(C)(C=C(C#N)C(=O)N1CCC[C@@H](n2nc(-c3ccc(Oc4cccc(F)c4F)cc3F)c3c(N)ncnc32)C1)N1CCOCC1 [Example 162A, (R)-2-(3-(4-amino-3-(4-(2,3-difluorophenoxy)-2-fluorophenyl)-1H-pyrazolo[3,4-d]pyrimidin-1-yl)piperidine-1-carbonyl)-4-methyl-4-morpholinopent-2-enenitrile] | 0.9
24 | CC(C)(C)C=C(C#N)C(=O)N1CCC[C@@H]1Cn1cc(-c2ccc(Oc3cccc(F)c3F)cc2)c2c(N)ncnc21 [Example 173B] | 34
25 | CC1(C=C(C#N)C(=O)N2CCC[C@H]2Cn2nc(-c3ccc(Oc4ccccc4)cc3F)c3c(N)ncnc32)COC1 [Example 197B] | 32.5

The molecules below were run on protein target (assay: Reversibility of Binding (compound in solution before and after perturbation of the target, HPLC-MS/MS)). Settings: after denaturation with 5 M guanidine hydrochloride and digestion with trypsin.
Experimental: The following approach was developed to differentiate compounds that form irreversible bonds with their targets, such as acrylamide compounds, from compound that bind reversibly. […] The reactions were then treated with perturbations including both denaturation with 5 M guanidine hydrochloride and digestion with trypsin, disrupting proper folding of the target. […] The concentration of compound in solution was assessed both preceding and following perturbation using high performance liquid chromatography (HPLC) coupled to tandem mass spectrometry.

Row | SMILES | Compound in solution in the denatured or digested state?
26 | N#CC(=CC1CC1)C(=O)N1CCC[C@@H](n2cc(-c3ccc(Oc4ccccc4)cc3)c3c(N)ncnc32)C1 [Example 27, (R)-2-(3-(4-amino-5-(4-phenoxyphenyl)-7H-pyrrolo[2,3-d]pyrimidin-7-yl)piperidine-1-carbonyl)-3-cyclopropylacrylonitrile] | yes
27 | C=CC(=O)N1CCC[C@@H](n2nc(-c3ccc(Oc4ccccc4)cc3)c3c(N)ncnc32)C1 [acrylamide-containing compound 1, reference compound] | depleted from solution in both the native and perturbed state

Same assay, conditions: protein target at a higher concentration than the compound; before perturbation

Row | SMILES | Compound in solution in the native state?
28 | N#CC(=CC1CC1)C(=O)N1CCC[C@@H](n2cc(-c3ccc(Oc4ccccc4)cc3)c3c(N)ncnc32)C1 [Example 27, (R)-2-(3-(4-amino-5-(4-phenoxyphenyl)-7H-pyrrolo[2,3-d]pyrimidin-7-yl)piperidine-1-carbonyl)-3-cyclopropylacrylonitrile] | depleted in the folded state and no
29 | C=CC(=O)N1CCC[C@@H](n2nc(-c3ccc(Oc4ccccc4)cc3)c3c(N)ncnc32)C1 [acrylamide-containing compound 1, reference compound] | depleted from solution in both the native and perturbed state
